Experimental data from patent US8906944B2, “Compounds as tyrosine kinase modulators” (Allergan, Inc., priority 2009, dated 2014).

Key:
PDGFβ [1] = target: T1, PDGFβ (Homo sapiens, UniProt P09619); assay: PDGFβ enzyme assay; type: biochemical; settings: Table IV, amide or urea linker
PDGFβ [2] = target: T1, PDGFβ; assay: PDGF stimulated Ca2+ signal in vitro (FLIPR); type: cell-based; set-up: host or cells: NHDF-Ad (normal human dermal fibroblasts); settings: NHDF-Ad, PDGF stimulation 10 ng/mL; Table IV, amide or urea linker; read-out: PDGFβ Cellular IC50
[3] = target: T2, human VEGF receptor (VEGFR-2) (Homo sapiens, UniProt P35968); assay: VEGFR2 kinase assay; type: biochemical; settings: His-VEGFR-2 cytoplasmic domain, 3.6 μM ATP; Table IV, amide or urea linker; read-out: VEGFR2 Enzyme IC50
T2 construct: The cytoplasmic domain of the human VEGF receptor (VEGFR-2) was expressed; His; made in house; host or cells: insect cells (baculovirus)
Outline: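 His-tagged VEGFR-2 cytoplasmic domain from baculovirus-infected insect cells phosphorylating plate-bound poly-Glu-Tyr (4:1). IC50 from blank-subtracted optical density versus compound concentration.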

VEGFR1 = VEGFR1 (Homo sapiens, UniProt P17948); assay: VEGFR1 enzyme assay; type: biochemical; settings: Table IV, amide or urea linker
VEGFR2 = VEGFR2 (Homo sapiens, UniProt P35968); assay: VEGF stimulated Ca++ signal in vitro (FLIPR)
Sequence of VEGFR2 (P35968 20-1356): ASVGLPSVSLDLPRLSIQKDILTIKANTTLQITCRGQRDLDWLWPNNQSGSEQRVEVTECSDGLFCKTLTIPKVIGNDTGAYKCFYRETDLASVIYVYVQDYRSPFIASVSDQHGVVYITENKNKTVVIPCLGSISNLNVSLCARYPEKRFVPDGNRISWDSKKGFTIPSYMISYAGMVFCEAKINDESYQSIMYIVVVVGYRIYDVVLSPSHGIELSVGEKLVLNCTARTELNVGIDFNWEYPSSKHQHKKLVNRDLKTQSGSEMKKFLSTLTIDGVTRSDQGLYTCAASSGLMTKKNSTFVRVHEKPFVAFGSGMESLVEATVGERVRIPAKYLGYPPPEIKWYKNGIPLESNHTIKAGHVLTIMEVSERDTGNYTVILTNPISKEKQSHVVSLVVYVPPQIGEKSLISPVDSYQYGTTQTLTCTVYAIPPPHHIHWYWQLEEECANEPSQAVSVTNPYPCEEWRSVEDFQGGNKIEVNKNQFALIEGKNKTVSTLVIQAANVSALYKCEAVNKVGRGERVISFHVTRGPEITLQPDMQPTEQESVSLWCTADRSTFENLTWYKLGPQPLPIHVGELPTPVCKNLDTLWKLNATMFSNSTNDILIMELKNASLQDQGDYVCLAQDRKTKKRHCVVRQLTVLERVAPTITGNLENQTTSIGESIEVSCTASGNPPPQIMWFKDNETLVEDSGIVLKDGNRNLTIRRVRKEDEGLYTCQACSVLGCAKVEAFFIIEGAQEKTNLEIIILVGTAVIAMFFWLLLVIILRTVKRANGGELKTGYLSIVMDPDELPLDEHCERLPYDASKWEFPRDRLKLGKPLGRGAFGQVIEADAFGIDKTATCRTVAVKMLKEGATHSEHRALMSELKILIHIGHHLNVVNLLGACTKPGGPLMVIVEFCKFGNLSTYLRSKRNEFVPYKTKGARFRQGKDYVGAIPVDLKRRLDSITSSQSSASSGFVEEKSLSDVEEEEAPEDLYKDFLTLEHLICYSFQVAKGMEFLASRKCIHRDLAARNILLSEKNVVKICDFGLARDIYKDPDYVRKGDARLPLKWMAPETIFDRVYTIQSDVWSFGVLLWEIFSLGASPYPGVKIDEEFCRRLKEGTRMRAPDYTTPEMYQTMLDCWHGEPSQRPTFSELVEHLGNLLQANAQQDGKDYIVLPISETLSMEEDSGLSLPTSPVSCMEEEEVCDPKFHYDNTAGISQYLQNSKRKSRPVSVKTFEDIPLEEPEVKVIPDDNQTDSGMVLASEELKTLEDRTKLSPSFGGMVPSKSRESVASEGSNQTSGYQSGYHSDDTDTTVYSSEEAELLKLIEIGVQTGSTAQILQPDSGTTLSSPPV
Protocol: VEGF Stimulated Ca^++Signal in Vitro
Automated FLIPR (Fluorometric Imaging Plate Reader) technology was used to screen for inhibitors of VEGF induced increases in intracellular calcium levels in fluorescent dye loaded endothelial cells. HUVEC (human umbilical vein endothelial cells) (Clonetics) were seeded in 96-well fibronectin coated black-walled plates overnight at 37 degree. C./5% CO2. […] C. Cells were washed 4 times (Original Cell Wash, Labsystems) to remove extracellular dye. […] Data were generated by determining max-min fluorescence levels for unstimulated, stimulated, and drug treated samples. IC50 values for test compounds were calculated from % inhibition of VEGF stimulated responses in the absence of inhibitor.

T2 sequence (P35968 786-1356 limits assumed): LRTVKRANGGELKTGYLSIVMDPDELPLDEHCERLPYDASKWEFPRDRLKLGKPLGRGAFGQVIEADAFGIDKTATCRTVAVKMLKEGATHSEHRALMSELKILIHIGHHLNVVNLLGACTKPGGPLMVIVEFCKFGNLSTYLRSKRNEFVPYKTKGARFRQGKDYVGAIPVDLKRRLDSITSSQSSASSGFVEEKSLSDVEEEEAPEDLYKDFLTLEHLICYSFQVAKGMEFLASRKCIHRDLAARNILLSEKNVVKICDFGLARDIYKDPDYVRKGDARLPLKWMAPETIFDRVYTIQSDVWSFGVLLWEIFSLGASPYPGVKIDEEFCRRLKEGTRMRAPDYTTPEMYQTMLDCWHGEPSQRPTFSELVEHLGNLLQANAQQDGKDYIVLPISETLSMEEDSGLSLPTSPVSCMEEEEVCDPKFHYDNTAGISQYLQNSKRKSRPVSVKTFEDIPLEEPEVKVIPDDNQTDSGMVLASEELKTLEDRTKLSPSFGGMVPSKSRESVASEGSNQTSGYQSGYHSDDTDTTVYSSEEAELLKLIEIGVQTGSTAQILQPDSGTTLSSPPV
Sequence of VEGFR1 (P17948 27-1338, species assumed): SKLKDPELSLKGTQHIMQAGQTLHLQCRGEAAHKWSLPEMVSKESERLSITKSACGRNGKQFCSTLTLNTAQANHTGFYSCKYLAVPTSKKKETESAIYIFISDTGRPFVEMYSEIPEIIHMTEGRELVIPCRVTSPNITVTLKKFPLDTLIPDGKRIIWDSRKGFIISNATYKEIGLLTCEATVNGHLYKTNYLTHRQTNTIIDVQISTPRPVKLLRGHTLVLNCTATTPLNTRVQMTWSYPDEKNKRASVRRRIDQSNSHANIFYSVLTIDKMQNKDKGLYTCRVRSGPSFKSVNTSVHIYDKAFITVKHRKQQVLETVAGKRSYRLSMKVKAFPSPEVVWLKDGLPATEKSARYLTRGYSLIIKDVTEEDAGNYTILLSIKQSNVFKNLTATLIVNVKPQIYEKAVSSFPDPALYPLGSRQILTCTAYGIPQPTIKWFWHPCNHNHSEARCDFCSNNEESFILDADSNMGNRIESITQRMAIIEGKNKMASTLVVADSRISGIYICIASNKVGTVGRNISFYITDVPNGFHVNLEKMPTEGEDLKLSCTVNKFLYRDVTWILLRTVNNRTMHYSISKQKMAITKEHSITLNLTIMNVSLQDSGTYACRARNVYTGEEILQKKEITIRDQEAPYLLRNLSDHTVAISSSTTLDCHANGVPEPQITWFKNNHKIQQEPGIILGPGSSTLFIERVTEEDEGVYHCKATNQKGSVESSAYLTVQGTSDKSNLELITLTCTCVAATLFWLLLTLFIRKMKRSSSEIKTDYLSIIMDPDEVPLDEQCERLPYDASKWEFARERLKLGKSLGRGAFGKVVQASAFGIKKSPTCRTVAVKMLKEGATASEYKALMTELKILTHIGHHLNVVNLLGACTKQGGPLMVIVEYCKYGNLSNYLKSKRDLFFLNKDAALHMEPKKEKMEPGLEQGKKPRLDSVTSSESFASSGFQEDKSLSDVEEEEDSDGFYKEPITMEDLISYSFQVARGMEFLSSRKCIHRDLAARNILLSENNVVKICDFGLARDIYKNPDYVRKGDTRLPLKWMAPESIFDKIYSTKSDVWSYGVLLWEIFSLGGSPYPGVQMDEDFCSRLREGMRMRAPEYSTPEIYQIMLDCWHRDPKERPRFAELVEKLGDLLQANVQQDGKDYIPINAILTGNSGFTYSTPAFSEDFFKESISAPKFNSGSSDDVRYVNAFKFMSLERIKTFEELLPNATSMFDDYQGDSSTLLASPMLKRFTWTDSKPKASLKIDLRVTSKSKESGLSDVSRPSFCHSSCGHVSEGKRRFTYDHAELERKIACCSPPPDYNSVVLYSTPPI
T1 sequence (P09619 33-1106): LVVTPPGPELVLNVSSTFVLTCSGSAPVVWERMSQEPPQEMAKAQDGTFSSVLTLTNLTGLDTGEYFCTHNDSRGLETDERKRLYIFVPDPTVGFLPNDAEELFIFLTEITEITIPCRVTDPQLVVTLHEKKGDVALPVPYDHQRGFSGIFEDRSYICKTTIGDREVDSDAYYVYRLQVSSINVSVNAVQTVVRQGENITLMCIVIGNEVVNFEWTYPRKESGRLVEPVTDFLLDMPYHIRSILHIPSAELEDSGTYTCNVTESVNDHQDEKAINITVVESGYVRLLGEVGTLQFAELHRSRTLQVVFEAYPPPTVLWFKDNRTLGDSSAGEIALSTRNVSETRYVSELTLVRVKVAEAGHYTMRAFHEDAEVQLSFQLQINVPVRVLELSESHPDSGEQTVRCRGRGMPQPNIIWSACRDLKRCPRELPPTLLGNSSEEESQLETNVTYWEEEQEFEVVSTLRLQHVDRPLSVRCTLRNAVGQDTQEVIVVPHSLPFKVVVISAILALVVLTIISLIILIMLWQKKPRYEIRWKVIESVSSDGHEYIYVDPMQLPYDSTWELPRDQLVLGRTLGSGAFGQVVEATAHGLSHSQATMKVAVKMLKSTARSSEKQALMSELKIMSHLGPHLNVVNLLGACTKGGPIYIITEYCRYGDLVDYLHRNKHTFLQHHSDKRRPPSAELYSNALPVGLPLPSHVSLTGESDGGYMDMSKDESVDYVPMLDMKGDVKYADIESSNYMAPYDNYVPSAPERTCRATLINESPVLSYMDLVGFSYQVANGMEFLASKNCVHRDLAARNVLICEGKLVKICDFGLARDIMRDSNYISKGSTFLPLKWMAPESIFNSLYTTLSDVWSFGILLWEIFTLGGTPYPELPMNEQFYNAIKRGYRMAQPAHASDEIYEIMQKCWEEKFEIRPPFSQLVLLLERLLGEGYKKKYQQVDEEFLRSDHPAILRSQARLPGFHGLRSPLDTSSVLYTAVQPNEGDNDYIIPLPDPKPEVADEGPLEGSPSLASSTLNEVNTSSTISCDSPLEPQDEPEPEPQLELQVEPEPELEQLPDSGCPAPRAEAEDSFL

| SMILES | IC50 (PDGFβ [1]) | IC50 (PDGFβ [2]) | IC50 [3] | IC50 (VEGFR1) | IC50 (VEGFR2) |
| --- | --- | --- | --- | --- | --- |
| COC(=O)CCNC(=O)c1c[nH]c(-c2cc(Oc3ccc(NC(=O)Nc4cc(C)ccc4F)c(F)c3)ccn2)c1 [Example 175, methyl 3-{[(5-{4-[3-fluoro-4-({[(2-fluoro-5-methylphenyl)amino]carbonyl}amino)phenoxy]pyridin-2-yl}-1H-pyrrol-3-yl)carbonyl]amino}propanoate] | 34 nM | 32 nM |  |  |  |
| COC(=O)CCCNC(=O)c1c[nH]c(-c2cc(Oc3ccc(NC(=O)Nc4cc(C)ccc4F)cc3)ccn2)c1 [Example 176, methyl 4-{[(5-{4-[4-({[(2-fluoro-5-methylphenyl)amino]carbonyl}amino)phenoxy]pyridin-2-yl}-1H-pyrrol-3-yl)carbonyl]amino}butanoate] | 38 nM | 78 nM |  |  |  |
| COC(=O)CN(CCCNC(=O)c1c[nH]c(-c2cc(Oc3ccc(NC(=O)Nc4cc(C)ccc4F)c(F)c3)ccn2)c1)CC(=O)OC [Example 213, dimethyl 2,2′-[(3-{[(5-{4-[3-fluoro-4-({[(2-fluoro-5-methylphenyl)amino]carbonyl}amino)phenoxy]pyridin-2-yl}-1H-pyrrol-3-yl)carbonyl]amino}propyl)imino]diacetate] | 38 nM |  | 9 nM | 13 nM | 3 nM |
| COC(=O)CN(CCNC(=O)c1c[nH]c(-c2cc(Oc3ccc(NC(=O)Nc4cc(C)ccc4F)c(F)c3)ccn2)c1)CC(=O)OC [Example 215, dimethyl 2,2′-[(2-{[(5-{4-[3-fluoro-4-({[(2-fluoro-5-methylphenyl)amino]carbonyl}amino)phenoxy]pyridin-2-yl}-1H-pyrrol-3-yl)carbonyl]amino}ethyl)imino]diacetate] | 34 nM |  | 5 nM | 13 nM | 4 nM |
| Cc1ccc(F)c(NC(=O)Nc2ccc(Oc3ccnc(-c4cc(C(=O)NCCNC(=O)OC(C)(C)C)c[nH]4)c3)cc2F)c1 [Example 216, tert-butyl (2-{[(5-{4-[3-fluoro-4-({[(2-fluoro-5-methylphenyl)amino]carbonyl}amino)phenoxy]pyridin-2-yl}-1H-pyrrol-3-yl)carbonyl]amino}ethyl)carbamate] | 59 nM | 214 nM | 17 nM | 16 nM |  |
| CCOC(=O)CN1CCN(C(=O)c2c[nH]c(-c3cc(Oc4ccc(NC(=O)Nc5cc(C)ccc5F)c(F)c4)ccn3)c2)CC1 [Example 219, ethyl {4-[(5-{4-[3-fluoro-4-({[(2-fluoro-5-methylphenyl)amino]carbonyl}amino)phenoxy]pyridin-2-yl}-1H-pyrrol-3-yl)carbonyl]piperazin-1-yl}acetate] | 29 nM |  | 9 nM | 8 nM | 8 nM |
| Cc1ccc(F)c(NC(=O)Nc2ccc(Oc3ccnc(-c4cc(C(=O)N5CCNCC5)c[nH]4)c3)cc2F)c1 [Example 221, 1-(2-fluoro-5-methylphenyl)-3-[2-fluoro-4-({2-[4-(piperazin-1-ylcarbonyl)-1H-pyrrol-2-yl]pyridin-4-yl}oxy)phenyl]urea] | 19 nM |  | 11 nM | 7 nM | 15 nM |
| Cc1ccc(F)c(NC(=O)Nc2ccc(Oc3ccnc(-c4cc(C(=O)OCCCN5CCOCC5)c[nH]4)c3)cc2F)c1 [Example 229, 3-morpholin-4-ylpropyl 5-{4-[3-fluoro-4-({[(2-fluoro-5-methylphenyl)amino]carbonyl}amino)phenoxy]pyridin-2-yl}-1H-pyrrole-3-carboxylate] | 9 nM |  | 11 nM | 11 nM | 13 nM |
| COC(=O)CC[C@H](NC(=O)c1c[nH]c(-c2cc(Oc3ccc(NC(=O)Nc4cccc(C)c4)c(F)c3)ccn2)c1)C(=O)OC [Example 230, dimethyl 2-{[(5-{4-[3-fluoro-4-({[(3-methylphenyl)amino]carbonyl}amino)phenoxy]pyridin-2-yl}-1H-pyrrol-3-yl)carbonyl]amino}pentanedioate] | 12 nM | 31 nM | 6 nM | 9 nM | 2 nM |
| CCOC(=O)CCNC(=O)c1c[nH]c(-c2cc(Oc3ccc(NC(=O)Nc4cc(C)ccc4F)c(F)c3)ccn2)c1 [Example 231, ethyl 3-{[(5-{4-[3-fluoro-4-({[(2-fluoro-5-methylphenyl)amino]carbonyl}amino)phenoxy]pyridin-2-yl}-1H-pyrrol-3-yl)carbonyl]amino}propanoate] | 43 nM | 32 nM |  |  |  |
| COC(=O)CN(CCCNC(=O)c1c[nH]c(-c2cc(Oc3ccc(NC(=O)Nc4cc(C)ccc4F)cc3)ccn2)c1)CC(=O)OC [Example 232, dimethyl 2,2′-[(3-{[(5-{4-[4-({[(2-fluoro-5-methylphenyl)amino]carbonyl}amino)phenoxy]pyridin-2-yl}-1H-pyrrol-3-yl)carbonyl]amino}propyl)imino]diacetate] | 20 nM |  | 9 nM | 16 nM | 5 nM |
| Cc1cccc(NC(=O)Nc2ccc(Oc3ccnc(-c4cc(C(=O)NCCCO)c[nH]4)c3)cc2)c1 [Example 237] | 19 nM |  | 8 nM | 8 nM | 3 nM |
| Cc1ccc(F)c(NC(=O)Nc2ccc(Oc3ccnc(-c4cc(C(=O)NN)c[nH]4)c3)cc2)c1 [Example 241, 1-(2-fluoro-5-methylphenyl)-3-[4-({2-[4-(hydrazinocarbonyl)-1H-pyrrol-2-yl]pyridin-4-yl}oxy)phenyl]urea] | 27 nM |  | 10 nM | 19 nM | 4 nM |
| COC(=O)[C@@H]1CCCN1CCCNC(=O)c1c[nH]c(-c2cc(Oc3cc(C(=O)Nc4cc(C)ccc4F)ccc3F)ccn2)c1 [Example 243, methyl (2S)-1-{3-[({5-[4-(2-fluoro-5-{[(2-fluoro-5-methylphenyl)amino]carbonyl}phenoxy)pyridin-2-yl]-1H-pyrrol-3-yl}carbonyl)amino]propyl}pyrrolidine-2-carboxylate] | 80 nM |  | 16 nM | 39 nM | 5 nM |
| CCNC(=O)[C@H](CCC(=O)OC)NC(=O)c1c[nH]c(-c2cc(Oc3cc(C(=O)Nc4cc(C)ccc4F)ccc3F)ccn2)c1 [Example 261, methyl 5-(ethylamino)-4-[({5-[4-(2-fluoro-5-{[(2-fluoro-5-methylphenyl)amino]carbonyl}phenoxy)pyridin-2-yl]-1H-pyrrol-3-yl}carbonyl)amino]-5-oxopentanoate] | 100 nM | 108 nM | 12 nM |  |  |
| COC(=O)CC[C@H](NC(=O)c1c[nH]c(-c2cc(Oc3ccc(NC(=O)Nc4cc(C)ccc4F)c(F)c3)ccn2)c1)C(=O)OC [Example 270, dimethyl 2-{[(5-{4-[3-fluoro-4-({[(2-fluoro-5-methylphenyl)amino]carbonyl}amino)phenoxy]pyridin-2-yl}-1H-pyrrol-3-yl)carbonyl]amino}pentanedioate] | 18 nM |  | 7 nM | 8 nM | 8 nM |
| Cc1ccc(F)c(NC(=O)Nc2ccc(Oc3ccnc(-c4cc(C(=O)OCCCN5CCOCC5)c[nH]4)c3)cc2)c1 [Example 274, 3-morpholin-4-ylpropyl 5-{4-[4-({[(2-fluoro-5-methylphenyl)amino]carbonyl}amino)phenoxy]pyridin-2-yl}-1H-pyrrole-3-carboxylate] | 27 nM |  | 11 nM | 16 nM | 10 nM |
